{
  "source": "paper PMC6177136",
  "about": "“Hybrid topoisomerase I and HDAC inhibitors as dual action anticancer agents” (PLoS ONE, 2018)",
  "key": {"HDAC2": {"molecular_target": "HDAC2 (Homo sapiens, UniProt Q92769)", "sequence (Q92769 whole entry, canonical isoform)": "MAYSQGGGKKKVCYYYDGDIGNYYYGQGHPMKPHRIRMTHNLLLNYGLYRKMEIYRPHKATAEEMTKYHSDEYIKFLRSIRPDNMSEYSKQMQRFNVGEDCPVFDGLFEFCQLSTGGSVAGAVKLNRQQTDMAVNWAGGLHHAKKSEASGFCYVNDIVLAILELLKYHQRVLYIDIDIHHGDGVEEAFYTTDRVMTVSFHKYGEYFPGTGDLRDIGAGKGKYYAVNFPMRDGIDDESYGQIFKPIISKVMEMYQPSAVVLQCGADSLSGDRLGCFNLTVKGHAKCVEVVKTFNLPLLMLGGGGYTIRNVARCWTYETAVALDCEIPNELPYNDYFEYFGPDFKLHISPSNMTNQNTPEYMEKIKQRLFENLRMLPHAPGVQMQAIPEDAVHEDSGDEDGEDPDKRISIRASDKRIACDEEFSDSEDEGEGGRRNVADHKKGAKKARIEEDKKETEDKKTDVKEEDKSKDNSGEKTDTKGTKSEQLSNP", "test": "HDAC profiling HDAC2", "assay_type": "biochemical", "settings": "purified isoform, 10 concentrations from 10 μM, triplicate"}, "U937": {"tested_on": "U937", "test": "Cytotoxicity assay (MTT, 72 h) U937", "assay_type": "cell-based", "settings": "Homo sapiens, U-937, read-out: IC50 ± SD U937"}, "Z-138": {"tested_on": "Z-138", "test": "Cytotoxicity assay (MTT, 72 h) Z-138", "assay_type": "cell-based", "settings": "Homo sapiens, read-out: IC50 ± SD Z-138"}, "L-428": {"tested_on": "L-428", "test": "Cytotoxicity assay (MTT, 72 h) L-428", "assay_type": "cell-based, Human", "settings": "Homo sapiens, L-428; 72 h, MTT assay; read-out: IC50 ± SD L-428", "procedure": "Human tumor cells were seeded in 96-well cell culture plastic plates, allowed to attach, and exposed to scalar concentrations of the test compounds."}, "HepG2": {"tested_on": "HepG2", "test": "Cytotoxicity assay (SRB, 72 h) HepG2", "assay_type": "cell-based, Human", "settings": "Homo sapiens, HepG2, read-out: IC50 ± SD HepG2"}, "MM481": {"tested_on": "MM481", "test": "Cytotoxicity assay, primary mesothelioma MM481", "assay_type": "cell-based, Human", "settings": "Homo sapiens; epithelioid, 72 h, SBR assay; read-out: IC50 ± SD MM481"}, "A2780": {"tested_on": "A2780", "test": "Cytotoxicity assay (SRB, 72 h) A2780", "assay_type": "cell-based, Human", "settings": "Homo sapiens, A2780, read-out: IC50 ± SD A2780"}, "p16": {"tested_on": "p16", "test": "Western blot, p16 in NCI-H460 cells", "assay_type": "cell-based, Human", "settings": "24 h; SAHA 5 μM, SN38 0.05 μM, 3d 0.125–0.2–0.5 μM", "procedure": "(§1) The supernatant, containing the total proteins extracts, were transferred in new vials. The protein concentration was measured by Bradford Protein Assay. Equal amounts of proteins for each sample were then resolved by SDS-PAGE and loaded on 10–12% polyacrilamide gels. The proteins were then transferred on nitrocellulose membranes. Molecular weights were estimated based upon the relative migration with molecular weight protein markers.\n(§2) The non-specific binding was blocked by incubation of membranes in TBS-tween (25 mM Tris, 150 mM NaCl, 0.1% Tween 20) with 5% nonfat dry milk (BIORAD, Milan) for 60 minutes. Subsequently, the membrane was incubated overnight with primary antibodies: anti-Histone H4 (Millipore, 1:500), anti-acetyl-H4 (Santa Cruz, 1:1000) anti-p21 (Santa Cruz, 1:1000), anti-acetyl-tubulin (abcam, 1:1000), anti-α-tubulin (Sigma, 1:5000), anti β-actin (Sigma, 1:5000) and anti-Topoisomerase 1 (Santa Cruz, 1:500). After three washes with TBST blots were incubated with HRP-coniugated secondary anti-mouse and anti-rabbit (Santa Cruz, 1:5000) 1 hour at room temperature. After three washes with TBST the blots were developed with ECL substrate (GE Healthcare) and chemiluminescence detected by ChemiDoc Imaging System (Biorad). The optical density of the protein bands detected by western blotting was normalized on α -tubulin levels and analyzed by ChemiDoc software (Biorad).\n(§3) Cells were lysed in 0.5% NP-40 and 40 μg of total proteins were loaded on NuPAGE 4–12% (Invitrogen), transferred to a nitrocellulose paper and probed with specific antibodies."}, "CycD1": {"tested_on": "CycD1", "test": "Western blot, CycD1 in NCI-H460 cells", "assay_type": "cell-based, Human", "settings": "24 h; SAHA 5 μM, SN38 0.05 μM, 3d 0.125–0.2–0.5 μM", "procedure": "as §1, §2, §3"}, "HDAC6": {"molecular_target": "HDAC6 (Homo sapiens, UniProt Q9UBN7)", "sequence (Q9UBN7 whole entry, canonical isoform)": "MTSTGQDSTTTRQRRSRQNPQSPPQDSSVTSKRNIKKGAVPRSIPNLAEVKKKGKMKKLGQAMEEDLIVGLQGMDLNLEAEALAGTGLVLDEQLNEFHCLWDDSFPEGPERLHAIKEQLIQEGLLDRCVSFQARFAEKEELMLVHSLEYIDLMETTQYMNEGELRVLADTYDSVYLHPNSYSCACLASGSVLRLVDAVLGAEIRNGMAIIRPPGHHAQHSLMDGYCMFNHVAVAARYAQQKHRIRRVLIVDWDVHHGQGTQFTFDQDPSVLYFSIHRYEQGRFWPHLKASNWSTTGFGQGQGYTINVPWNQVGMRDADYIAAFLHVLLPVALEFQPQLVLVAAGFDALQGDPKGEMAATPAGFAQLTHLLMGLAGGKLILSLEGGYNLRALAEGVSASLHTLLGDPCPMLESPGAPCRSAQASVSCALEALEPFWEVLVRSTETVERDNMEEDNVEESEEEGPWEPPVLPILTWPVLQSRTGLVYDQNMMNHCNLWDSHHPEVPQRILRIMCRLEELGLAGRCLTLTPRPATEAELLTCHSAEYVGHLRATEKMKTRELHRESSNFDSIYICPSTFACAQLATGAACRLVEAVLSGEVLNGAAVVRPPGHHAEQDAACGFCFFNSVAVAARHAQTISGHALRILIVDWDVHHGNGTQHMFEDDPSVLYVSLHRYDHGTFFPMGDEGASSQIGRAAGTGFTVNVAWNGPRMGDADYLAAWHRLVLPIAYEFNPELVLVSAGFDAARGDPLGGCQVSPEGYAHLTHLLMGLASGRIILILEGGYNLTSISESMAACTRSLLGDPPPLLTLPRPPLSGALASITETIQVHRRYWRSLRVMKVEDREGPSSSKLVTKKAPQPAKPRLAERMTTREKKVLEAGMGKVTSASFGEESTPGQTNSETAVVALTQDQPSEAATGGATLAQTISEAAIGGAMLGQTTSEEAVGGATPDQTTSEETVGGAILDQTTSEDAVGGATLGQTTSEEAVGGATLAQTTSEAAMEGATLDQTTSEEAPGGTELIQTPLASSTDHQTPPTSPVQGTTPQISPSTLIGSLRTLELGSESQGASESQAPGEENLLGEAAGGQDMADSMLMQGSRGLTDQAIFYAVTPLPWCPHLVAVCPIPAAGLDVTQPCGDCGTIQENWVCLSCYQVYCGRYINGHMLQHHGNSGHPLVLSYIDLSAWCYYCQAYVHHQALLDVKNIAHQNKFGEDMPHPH", "test": "HDAC profiling HDAC6", "assay_type": "biochemical", "settings": "purified isoform, 10 concentrations from 10 μM, triplicate"}, "Top1": {"tested_on": "Top1", "test": "Western blot, Top1 expression in NCI-H460 cells", "assay_type": "cell-based, Human", "settings": "24 h; SAHA 5 μM, SN38 0.05 μM, 3d 0.125–0.2–0.5 μM", "procedure": "as §1\nas §2, with “software (Biorad). […]” for “software (Biorad).”"}, "MM432": {"tested_on": "MM432", "test": "Cytotoxicity assay, primary mesothelioma MM432", "assay_type": "cell-based, Human", "settings": "Homo sapiens; sarcomatoid, 72 h, SBR assay; read-out: IC50 ± SD MM432"}, "MM491": {"tested_on": "MM491", "test": "Cytotoxicity assay, primary mesothelioma MM491", "assay_type": "cell-based, Human", "settings": "Homo sapiens; biphasic, 72 h, SBR assay; read-out: IC50 ± SD MM491"}, "MAVER-2": {"tested_on": "MAVER-2", "test": "Cytotoxicity assay (MTT, 72 h) MAVER-2", "assay_type": "cell-based, Human", "settings": "Homo sapiens, read-out: IC50 ± SD MAVER-2"}, "[1]": {"tested_on": "primary malignant pleural mesothelioma (MPM) cell lines", "test": "Primary malignant pleural mesothelioma (MPM) cell lines (summary)", "assay_type": "cell-based", "settings": "Homo sapiens, span over the cell line panel, 72 h, read-out: IC50 across primary mesothelioma cell lines (Table 7)"}, "Acetylated Tubulin": {"tested_on": "Acetylated Tubulin", "test": "Western blot, acetylation of tubulin in NCI-H460 cells", "assay_type": "cell-based, Human", "settings": "24 h; SN38 0.05 μM, SAHA 5 μM, 3b and 3d 0.125–0.2–0.5 μM", "procedure": "as §1\nas §2, with “software (Biorad). […]” for “software (Biorad).”"}, "K 562": {"tested_on": "K 562", "test": "Cytotoxicity assay (MTT, 72 h) K 562", "assay_type": "cell-based", "settings": "Homo sapiens, K562, read-out: IC50 ± SD K 562"}, "Capan 1": {"tested_on": "Capan 1", "test": "Cytotoxicity assay (SRB, 72 h) Capan 1", "assay_type": "cell-based, Human", "settings": "Homo sapiens, CAPAN-1, read-out: IC50 ± SD Capan 1"}, "p21": {"tested_on": "p21", "test": "Western blot, p21 in NCI-H460 cells", "assay_type": "cell-based, Human", "settings": "24 h; SAHA 5 μM, SN38 0.05 μM, 3d 0.125–0.2–0.5 μM", "procedure": "as §1\nas §2, with “software (Biorad). […]” for “software (Biorad).”"}, "[2]": {"tested_on": "human epithelioid mesothelioma MM473-Luc", "test": "In vivo antitumor activity, orthotopic MM473-Luc xenograft", "settings": "i.v. 45 mg/kg, q4dx3w, treatment from day 15"}, "DG-75": {"tested_on": "DG-75", "test": "Cytotoxicity assay (MTT, 72 h) DG-75", "assay_type": "cell-based, Human", "settings": "Homo sapiens, DG-75; 72 h, MTT assay; read-out: IC50 ± SD DG-75"}, "MM473": {"tested_on": "MM473", "test": "Cytotoxicity assay, primary mesothelioma MM473", "assay_type": "cell-based, Human", "settings": "Homo sapiens, MM473; epithelioid, 72 h, SBR assay; read-out: IC50 ± SD MM473"}, "MM487": {"tested_on": "MM487", "test": "Cytotoxicity assay, primary mesothelioma MM487", "assay_type": "cell-based, Human", "settings": "Homo sapiens, MM487; biphasic, 72 h, SBR assay; read-out: IC50 ± SD MM487"}, "NCI-H460": {"tested_on": "NCI-H460", "test": "Cytotoxicity assay (SRB, 72 h) NCI-H460", "assay_type": "cell-based, Human", "settings": "Homo sapiens, NCI-H460; 72 h, SRB assay; read-out: IC50 ± SD NCI-H460"}, "H2A.X": {"tested_on": "H2A.X", "test": "Western blot, H2A.X induction in NCI-H460 cells", "assay_type": "cell-based, Human", "settings": "24 h; SAHA 5 μM, SN38 0.05 μM, 3d 0.125–0.2–0.5 μM", "procedure": "as §1, §2, §3"}, "HDAC10": {"molecular_target": "HDAC10 (Homo sapiens, UniProt Q969S8)", "sequence (Q969S8 whole entry, canonical isoform)": "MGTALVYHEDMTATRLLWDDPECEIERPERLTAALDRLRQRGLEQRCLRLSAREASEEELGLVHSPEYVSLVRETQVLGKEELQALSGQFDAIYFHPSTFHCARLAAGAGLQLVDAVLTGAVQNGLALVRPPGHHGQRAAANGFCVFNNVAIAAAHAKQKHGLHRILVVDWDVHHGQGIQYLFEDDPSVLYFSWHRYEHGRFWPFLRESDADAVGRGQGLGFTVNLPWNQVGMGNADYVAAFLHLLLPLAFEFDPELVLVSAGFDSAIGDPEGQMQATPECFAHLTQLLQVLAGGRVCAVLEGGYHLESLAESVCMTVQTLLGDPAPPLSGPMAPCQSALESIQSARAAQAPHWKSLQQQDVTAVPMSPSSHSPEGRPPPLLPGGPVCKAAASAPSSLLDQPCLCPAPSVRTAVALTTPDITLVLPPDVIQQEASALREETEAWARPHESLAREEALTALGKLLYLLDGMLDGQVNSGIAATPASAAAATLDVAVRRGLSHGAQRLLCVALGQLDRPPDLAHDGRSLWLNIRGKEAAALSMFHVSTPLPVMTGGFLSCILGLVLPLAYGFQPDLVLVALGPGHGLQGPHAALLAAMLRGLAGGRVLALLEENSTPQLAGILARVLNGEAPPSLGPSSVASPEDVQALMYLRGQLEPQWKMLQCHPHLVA", "test": "HDAC profiling HDAC10", "assay_type": "biochemical", "settings": "purified isoform, 10 concentrations from 10 μM, triplicate"}, "HT29": {"tested_on": "HT29", "test": "Cytotoxicity assay (SRB, 72 h) HT29", "assay_type": "cell-based, Human", "settings": "Homo sapiens, HT-29, read-out: IC50 ± SD HT29"}},
  "data": [
    {"smiles": "CC[C@@]1(O)C(=O)OCc2c1cc1n(c2=O)Cc2c-1nc1ccc(O)cc1c2C=NOCCCCCC(=O)NO", "note": "[Compound 3d, 6-(10-hydroxycamptothecin-7-ylmethyleneaminooxy)-hexanoic acid hydroxyamide]", "values": [
      {"measurement": "IC50", "setting": "HDAC2", "value": 0.0933, "unit": "µM"},
      {"measurement": "IC50", "setting": "U937", "value": "0.18 ± 0.05", "unit": "µM"},
      {"measurement": "IC50", "setting": "Z-138", "value": "0.006 ± 0.001", "unit": "µM"},
      {"measurement": "IC50", "setting": "L-428", "value": "0.43 ± 0.07", "unit": "µM"},
      {"measurement": "IC50", "setting": "HepG2", "value": "0.11 ± 0.03", "unit": "µM"},
      {"measurement": "IC50", "setting": "MM481", "value": "11.7 ± 1.2", "unit": "µM"},
      {"measurement": "IC50", "setting": "A2780", "value": "0.27 ± 0.08", "unit": "µM"},
      {"measurement": "P16 regulation", "setting": "p16", "value": "didn’t show any effect"},
      {"measurement": "CycD1 regulation", "setting": "CycD1", "value": "didn’t show any effect"},
      {"measurement": "IC50", "setting": "HDAC6", "value": 0.00156, "unit": "µM"},
      {"measurement": "expression of Top1", "setting": "Top1", "value": "drastically reduced the expression of Top1"},
      {"measurement": "IC50", "setting": "MM432", "value": "0.16 ± 0.03", "unit": "µM"},
      {"measurement": "IC50", "setting": "MM491", "value": "0.87 ± 0.3", "unit": "µM"},
      {"measurement": "IC50", "setting": "MAVER-2", "value": "0.012 ± 0.001", "unit": "µM"},
      {"measurement": "IC50", "setting": "[1]", "value": "0.05 to 11", "unit": "µM"},
      {"measurement": "accumulation of acetylated tubulin", "setting": "Acetylated Tubulin", "value": "H4 and tubulin acetylation in a dose dependent manner"},
      {"measurement": "IC50", "setting": "K 562", "value": "0.94 ± 0.2", "unit": "µM"},
      {"measurement": "IC50", "setting": "Capan 1", "value": "0.035 ± 0.002", "unit": "µM"},
      {"measurement": "expression of p21", "setting": "p21", "value": "activated the expression of p21"},
      {"measurement": "antitumor activity (BLI signal, average radiance)", "setting": "[2]", "value": "strong antitumor activity"},
      {"measurement": "IC50", "setting": "DG-75", "value": "1.9 ± 0.2", "unit": "µM"},
      {"measurement": "IC50", "setting": "MM473", "value": "2.1 ± 0.5", "unit": "µM"},
      {"measurement": "IC50", "setting": "MM487", "value": "0.2 ± 0.05", "unit": "µM"},
      {"measurement": "IC50", "setting": "NCI-H460", "value": "0.27 ± 0.02", "unit": "µM"},
      {"measurement": "H2A.X induction (DNA damage)", "setting": "H2A.X", "value": "DNA damage at a dose corresponding to its IC80, confirmed by H2A.X induction"},
      {"measurement": "IC50", "setting": "HDAC10", "value": 0.224, "unit": "µM"},
      {"measurement": "IC50", "setting": "HT29", "value": "0.39 ± 0.1", "unit": "µM"}
    ]}
  ]
}
